Key:
[1] = system: SLE CD4 T-cells (CXCR5); test: CXCR5 (TFH marker) expression on stimulated CD4 T-cells, flow cytometry; type: cell-based, human
Description: Antibodies to CD4, CD8, CD3 conjugated with various fluorochromes (FITC, phycoerythrin (PE), peridinin-chlorophyll-protein (PerCp), allophycocyanin (APC), PE-Cy7) were from BD Biosciences or eBiosciences (San Diego, CA). For further LL37-specific T-cell characterization and B-cell characterization we used: APC-Cy7-CXCR5 (FAB190), APC or PE-CD38, CD19, CD20, CD27, antibodies, purchased from BD Biosciences, eBiosciences, Novus Biologicals (Littleton, CO), R&D (Minneapolis, MN). Appropriate isotype-matched controls were purchased from the same companies. PerCp-7-AAD was from BD Pharmingen, DAPI from Invitrogen (Thermo Fisher, Carlsbad, CA, USA).
PBMCs were purified from EDTA-treated blood, on Ficoll-Hypaque (Pharmacia Fine Chemicals, Uppsala, Sweden) and were incubated (10^5 cells/well) in 96-well-flat-bottom-microplates (BD) in T-cell-medium (RPMI 1640, 10% heat-inactivated human serum, HS, Gibco), 2 mM L-glutamine, 10 U/mL penicillin and 100 μg/mL streptomycin), with/without peptides. We performed assays on fresh cells, within 1-to-3 h from collection or on PBMCs frozen in 90% FCS−10% DMSO, whose viability we assessed by Trypan blue exclusion, with an inverted microscope. Recovery of live cells was between 65 and 85% of the frozen number. At day 3 and 5, BrdU was added (1 μg/mL). BrdU-incorporation was detected by APC-labeled anti-BrdU antibody (BD Pharmingen), after surface staining for CD4, CD3, CD8 and analyzed by flow cytometry (Gallios, BeckmanCoulter, Brea, CA, USA). Internal control for T-cell viability and proliferation was PHA treatment (2 μg/mL). SI for proliferation was calculated by dividing percent of BrdU-staining in the presence of each peptide antigen (LL37, carb-LL37, cit-LL37, LL37 reverse, REV; cit-LL37 reverse, cit-REV; carb-LL37 reverse, carb-REV) by the percent obtained in the untreated cells. SI for proliferation was considered positive when the values of percent of BrdU positive cells was three times higher than the values obtained with the control peptides (SI > 3). Assays were repeated twice with each patient. In rare cases in which background proliferation (culture with REV, cit-REV, carb-REV), exceeded antigen-specific proliferation (that is response to LL37, carb-LL37, cit-LL37), the assay was repeated three times. Concomitant phenotype analysis of LL37-responder T-cells included staining for CD3, CD4, CD8, CXCR5 (CXCR5 was assessed on BrdU/CD3/CD4-positive cells).

[2] = system: pDCs; test: IFN-α production by purified pDCs stimulated with peptide-DNA complexes; type: cell-based, human; details: 24 h, ELISA; for IFN-α response of pDCs to peptide alone: peptide without DNA
Description: Buffy-coats from HD were from Centro Trasfusionale, Policlinico Umberto I, Rome, IT. After separation of mononuclear cells by Ficoll centrifugation, pDCs were purified as described, by using the Diamond Plasmacytoid Dendritic Cell Isolation Kit (Miltenyi Biotec, Bergisch Gladbach, Germany) to obtain 99% purity. Purified pDCs were seeded into 96-well round-bottom plates at 3.5/5 × 10^4 cells per well in 200 μL RPMI 1640 (GIBCO), supplemented with 10% fetal calf serum (FCS), 1% Hepes and 1% sodium pyruvate. LL37, cit-LL37 and carb-LL37 were premixed with total human genomic DNA (extracted from PBMC of HD, see below) (15 μg/mL). After 15 min incubation at room temperature the mix was added to the pDC cultures. IFN-α in supernatants was measured by ELISA (MabTech, Stockholm, Sweden), after 24 h (according to the manufacturer’s instructions).
Human DNA was extracted from PBMCs, as reported and was fragmented by sonication. Five milligrams of DNA in a volume of 300 μL were fragmented using the Sonics Vibra Cell sonicator (Newtown, CT, USA), with the following settings: 2, 4 and 10 sonication cycles (30 s on, 30 s off, in ice) to obtain DNA fragment sizes between 100 and 1000 bp. The resulting size distribution was controlled by 2% agarose gel electrophoresis.

[3] = system: SLE-affected kidney biopsies; test: Confocal microscopy of SLE renal biopsies; design: species or system human; details: antibody RRB640, lupus nephritis class IV
Description: Paraffin-included SLE renal biopsies were obtained from Policlinico Umberto I, Rome, IT. Biopsies were de-paraffinized in xylene (5 min, two times), followed by passages in: absolute ethanol (3 min), 95% ethanol in water (3 min), 80% ethanol in water (3 min), 70% ethanol in water (3 min) and antigen retrieval (5 min at 95 °C in 10 mM sodium citrate, pH 6.0). […] Slides were washed three times for 3 min under agitation with washing buffer and incubated with donkey anti-mouse or anti-rabbit secondary antibody, conjugated with AlexaFluor 647, Alexa Fluor 568 or 594 or AlexaFluor 488 (Abcam, Cambridge, UK) depending on the combinations of markers analyzed (in humidified chamber). Slides were washed again in washing buffer and mounted in Prolong Gold anti-fade media containing a DNA dye (DAPI) (Molecular Probes), before analysis with a confocal microscope, objectives 20× or 40× and 60× in oil immersion. Images were taken by a FV1000 confocal microscope (Olympus, Tokyo, Japan), using a Olympus planapo objective 40× or 60× oil A.N. 1,42. Excitation light was obtained by a Laser Dapi 408 nm for DAPI, an Argon Ion Laser (488 nm) for FITC (Alexa 488), a Diode Laser HeNe (561 nm) for Alexa 568 and a Red Diode Laser (638 nm) for Alexa 647. DAPI emission was recorded from 415 to 485 nm, FITC emission was recorded from 495 to 550 nm, Alexa 568 from 583 to 628 nm and Alexa 647, from 634 to 750 nm.

[4] = Net charge of the peptides; type: physicochemical
[5] = system: SLE CD4 T-cells; details: cited from earlier work
Description: The activation of autoreactive T- and B-cells characterizes Systemic Lupus Erythematosus (SLE), a rare but potentially severe disease, with poor therapeutic options. In this context, a deeper knowledge of the molecular pathways leading to autoimmunity in SLE may shed light over disease aspects still neglected and uncover novel disease biomarkers and therapy targets. The human cathelicidin antimicrobial peptide, (AMP, Uniprot P49913)—also called CAP-18 or FALL-39—is encoded by the human gene CAMP. The mature form, peptide LL37, which corresponds to the COOH-terminal part of the molecule ( ...

Row | Substance | Correlation of CXCR5 fold-increase with anti-native LL37 antibody response ([1]; Spearman, Figure 4e) | Correlation of T-cell proliferation with CXCR5 up-regulation ([1]; Spearman, Figure 3d) | CXCR5 up-regulation on antigen-specific T-cells ([1]; fold-increase with respect to T-cells proliferating to control carb-REV) | CXCR5-positive cells among total CD3+CD4+ cells ([1]; representative plot, Figure S5b left panels) | CXCR5-positive cells among CD3+CD4+BrdU+ cells ([1]; representative plot, Figure S5b middle panels) | CXCR5-positive cells among CD3+CD4+BrdU- cells ([1]; representative plot, Figure S5b right panels) | IFN-α response of pDCs to peptide alone [2] | Presence in SLE-affected kidney biopsies and co-localization with IgG [3] | Net charge [4] | IFN-I/IFN-α production by pDCs, peptide-DNA complex ([2]; peptide premixed with human DNA (15 μg/mL)) | Antigen efficiency in SLE compared to native LL37 [5]
1 | L*LGDFFRK*SK*EK*IGKEFK*RIVQRIK*DFLRNLVPRTES [carb-LL37] | significantly correlated | positive and significance correlation | up-regulation of the TFH cell marker CXCR5 | 8.95% | 39.4% | 3.08% | no IFN-α response | present in SLE-affected kidney biopsies and partially co-localizes with immunoglobulin (Ig)-G | +1 | – | –
2 | LLGDFFR(cit)KSKEKIGKEFKR(cit)IVQR(cit)IKDFLR(cit)NLVPR(cit)TES [cit-LL37, LL37 citrullinated at all five arginine sites] | – | – | – | – | – | – | no IFN-α response | – | +1 | did not stimulate any IFN-I production by pDCs | more efficient antigen in SLE than native LL37

— publication PMC7915858, “Complementary Effects of Carbamylated and Citrullinated LL37 in Autoimmunity and Inflammation in Systemic Lupus Erythematosus” (International Journal of Molecular Sciences, 2021)
